Test results: PubChem BioAssay (NCI)
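Cultured in 96-well plates, cells were exposed to test compound for 48 hours across five concentrations. GI50 = concentration required for 50% inhibition of growth. At the TGI there is no net growth.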

Assays:
Assay in all cases: NCI tumour cell line growth inhibition, 48 h
K-562 leukemia = system: K-562 leukemia
OVCAR-5 ovarian = system: OVCAR-5 ovarian
CAKI-1 renal = system: CAKI-1 renal
UACC-257 melanoma = system: UACC-257 melanoma
IGROV1 ovarian = system: IGROV1 ovarian
SK-OV-3 ovarian = system: SK-OV-3 ovarian
MOLT-4 leukemia = system: MOLT-4 leukemia
SW-620 colon = system: SW-620 colon
OVCAR-8 ovarian = system: OVCAR-8 ovarian
SF-295 CNS = system: SF-295 CNS
EKVX NSCLC = system: EKVX NSCLC
HOP-62 NSCLC = system: HOP-62 NSCLC
LOX IMVI melanoma = system: LOX IMVI melanoma
SN12C renal = system: SN12C renal
T-47D breast = system: T-47D breast
NCI-H460 lung = system: NCI-H460 lung
MALME-3M melanoma = system: MALME-3M melanoma
ACHN renal = system: ACHN renal
OVCAR-3 ovarian = system: OVCAR-3 ovarian
SNB-75 CNS = system: SNB-75 CNS
UO-31 renal = system: UO-31 renal
SK-MEL-28 melanoma = system: SK-MEL-28 melanoma
SK-MEL-2 melanoma = system: SK-MEL-2 melanoma
786-0 renal = system: 786-0 renal
SK-MEL-5 melanoma = system: SK-MEL-5 melanoma
SR leukemia = system: SR leukemia
A549 NSCLC = system: A549 NSCLC
HCT-116 colon = system: HCT-116 colon
A498 renal = system: A498 renal
U251 CNS = system: U251 CNS
HL-60(TB) leukemia = system: HL-60(TB) leukemia
COLO 205 colon = system: COLO 205 colon
RXF 393 renal = system: RXF 393 renal
MCF7 breast = system: MCF7 breast
HOP-92 NSCLC = system: HOP-92 NSCLC
HCC-2998 colon = system: HCC-2998 colon
BT-549 breast = system: BT-549 breast
HCT-15 colon = system: HCT-15 colon
NCI/ADR-RES ovarian = system: NCI/ADR-RES ovarian
OVCAR-4 ovarian = system: OVCAR-4 ovarian
DU-145 prostate = system: DU-145 prostate
UACC-62 melanoma = system: UACC-62 melanoma
MDA-MB-231 breast = system: MDA-MB-231 breast
SF-539 CNS = system: SF-539 CNS
HS 578T breast = system: HS 578T breast
NCI-H522 lung = system: NCI-H522 lung
TK-10 renal = system: TK-10 renal
SNB-19 CNS = system: SNB-19 CNS
NCI-H226 lung = system: NCI-H226 lung
NCI-H23 lung = system: NCI-H23 lung
HT29 colon = system: HT29 colon
MDA-MB-435 = system: MDA-MB-435
PC-3 prostate = system: PC-3 prostate

COc1cc2c(cc1OCCCCCCN1CCN(CC(=O)Nc3ccc(Cl)cc3C(=O)c3ccccc3Cl)CC1)N=CC1CCCN1C2=O (centres undefined)
GI50 (K-562 leukemia): 193 nM | GI50 (OVCAR-5 ovarian): 567 nM | TGI (OVCAR-5 ovarian): 1340 nM | GI50 (CAKI-1 renal): 151 nM | TGI (CAKI-1 renal): 421 nM | GI50 (UACC-257 melanoma): 200 nM | TGI (UACC-257 melanoma): 775 nM | GI50 (IGROV1 ovarian): 195 nM | TGI (IGROV1 ovarian): 388 nM | GI50 (SK-OV-3 ovarian): 494 nM | TGI (SK-OV-3 ovarian): 1170 nM | GI50 (MOLT-4 leukemia): 167 nM | TGI (MOLT-4 leukemia): 426 nM | GI50 (SW-620 colon): 211 nM | TGI (SW-620 colon): 591 nM | GI50 (OVCAR-8 ovarian): 201 nM | TGI (OVCAR-8 ovarian): 607 nM | GI50 (SF-295 CNS): 180 nM | TGI (SF-295 CNS): 461 nM | GI50 (EKVX NSCLC): 477 nM | TGI (EKVX NSCLC): 1140 nM | GI50 (HOP-62 NSCLC): 146 nM | TGI (HOP-62 NSCLC): 294 nM | GI50 (LOX IMVI melanoma): 157 nM | TGI (LOX IMVI melanoma): 305 nM | GI50 (SN12C renal): 298 nM | TGI (SN12C renal): 1080 nM | GI50 (T-47D breast): 164 nM | TGI (T-47D breast): 415 nM | GI50 (NCI-H460 lung): 180 nM | TGI (NCI-H460 lung): 334 nM | GI50 (MALME-3M melanoma): 185 nM | TGI (MALME-3M melanoma): 361 nM | GI50 (ACHN renal): 300 nM | TGI (ACHN renal): 765 nM | GI50 (OVCAR-3 ovarian): 189 nM | TGI (OVCAR-3 ovarian): 396 nM | GI50 (SNB-75 CNS): 169 nM | TGI (SNB-75 CNS): 472 nM | GI50 (UO-31 renal): 242 nM | TGI (UO-31 renal): 681 nM | GI50 (SK-MEL-28 melanoma): 185 nM | TGI (SK-MEL-28 melanoma): 332 nM | GI50 (SK-MEL-2 melanoma): 217 nM | TGI (SK-MEL-2 melanoma): 556 nM | GI50 (786-0 renal): 339 nM | TGI (786-0 renal): 823 nM | GI50 (SK-MEL-5 melanoma): 513 nM | TGI (SK-MEL-5 melanoma): 942 nM | GI50 (SR leukemia): 44.7 nM | TGI (SR leukemia): 194 nM | GI50 (A549 NSCLC): 251 nM | TGI (A549 NSCLC): 765 nM | GI50 (HCT-116 colon): 183 nM | TGI (HCT-116 colon): 481 nM | GI50 (A498 renal): 535 nM | TGI (A498 renal): 1000 nM | GI50 (U251 CNS): 258 nM | TGI (U251 CNS): 725 nM | GI50 (HL-60(TB) leukemia): 244 nM | GI50 (COLO 205 colon): 154 nM | TGI (COLO 205 colon): 314 nM | GI50 (RXF 393 renal): 168 nM | TGI (RXF 393 renal): 324 nM | GI50 (MCF7 breast): 153 nM | TGI (MCF7 breast): 321 nM | GI50 (HOP-92 NSCLC): 177 nM | TGI (HOP-92 NSCLC): 396 nM | GI50 (HCC-2998 colon): 173 nM | TGI (HCC-2998 colon): 314 nM | GI50 (BT-549 breast): 252 nM | TGI (BT-549 breast): 898 nM | GI50 (HCT-15 colon): 518 nM | TGI (HCT-15 colon): 1180 nM | GI50 (NCI/ADR-RES ovarian): 733 nM | TGI (NCI/ADR-RES ovarian): 2480 nM | GI50 (OVCAR-4 ovarian): 419 nM | TGI (OVCAR-4 ovarian): 1250 nM | GI50 (DU-145 prostate): 254 nM | TGI (DU-145 prostate): 715 nM | GI50 (UACC-62 melanoma): 408 nM | TGI (UACC-62 melanoma): 975 nM | GI50 (MDA-MB-231 breast): 383 nM | TGI (MDA-MB-231 breast): 1070 nM | GI50 (SF-539 CNS): 289 nM | TGI (SF-539 CNS): 740 nM | GI50 (HS 578T breast): 243 nM | TGI (HS 578T breast): 589 nM | GI50 (NCI-H522 lung): 143 nM | TGI (NCI-H522 lung): 322 nM | GI50 (TK-10 renal): 497 nM | TGI (TK-10 renal): 1170 nM | GI50 (SNB-19 CNS): 244 nM | TGI (SNB-19 CNS): 632 nM | GI50 (NCI-H226 lung): 575 nM | TGI (NCI-H226 lung): 1450 nM | GI50 (NCI-H23 lung): 198 nM | TGI (NCI-H23 lung): 468 nM | GI50 (HT29 colon): 229 nM | TGI (HT29 colon): 576 nM | GI50 (MDA-MB-435): 157 nM | TGI (MDA-MB-435): 304 nM | GI50 (PC-3 prostate): 308 nM | TGI (PC-3 prostate): 715 nM
